Reference: ChEMBL document CHEMBL3588815, “Distinct Temporal Fingerprint for Cyclic Adenosine Monophosphate (cAMP) Signaling of Indole-2-carboxamides as Allosteric Modulators of the Cannabinoid Receptors” (J Med Chem, 2015)
The source made the active and inactive calls. The calls are words filed in the database; no cut-off is given here.

Tests used:
[1] = biological target: T1, Cannabinoid receptor 1 (Homo sapiens, UniProt P21554); test: Allosteric modulator activity at hemagglutinin-tagged human CB1 receptor expressed in HEK293 cells assessed as effect on CP55,940-induced inhibition of forskolin-induced cAMP accumulation by kinetic cAMP assay; assay type: functional, cell-based
[2] = biological target: T2, Cannabinoid receptor 2 (Homo sapiens, UniProt P34972); test: Allosteric agonist activity at hemagglutinin-tagged human CB2 receptor expressed in HEK293 cells assessed as effect on forskolin-induced cAMP accumulation at 10 uM by kinetic cAMP assay; assay type: functional, cell-based
[3] = biological target: T1, Cannabinoid receptor 1; test: Inverse agonist activity at hemagglutinin-tagged human CB1 receptor expressed in HEK293 cells assessed as increase in forskolin-induced cAMP accumulation in absence of CP55,940 at 31.6 uM by cAMP BRET assay; assay type: functional, cell-based
[4] = biological target: T1, Cannabinoid receptor 1; test: Allosteric agonist activity at hemagglutinin-tagged human CB1 receptor expressed in HEK293 cells assessed as effect on forskolin-induced cAMP accumulation at 10 uM by kinetic cAMP assay; assay type: functional, cell-based
[5] = biological target: T2, Cannabinoid receptor 2; test: Activity at hemagglutinin-tagged human CB2 receptor expressed in HEK293 cells assessed as increase in forskolin-induced cAMP accumulation in absence of CP55,940 by cAMP BRET assay; assay type: functional, cell-based
[6] = biological target: T1, Cannabinoid receptor 1; test: Activity at hemagglutinin-tagged human CB1 receptor expressed in HEK293 cells assessed as effect on forskolin-induced cAMP accumulation after 10 mins in presence of CP55,940 by cAMP BRET assay; assay type: functional, cell-based
[7] = biological target: T1, Cannabinoid receptor 1; test: Activity at human CB1 receptor expressed in AtT20 cells assessed as effect on 1 uM CP55,940-induced peak hyperpolarization up to 10 uM by membrane potential assay; assay type: cell-based
[8] = biological target: T1, Cannabinoid receptor 1; test: Activity at hemagglutinin-tagged human CB1 receptor expressed in HEK293 cells assessed as effect on forskolin-induced cAMP accumulation after 15 mins in presence of CP55,940 by cAMP BRET assay; assay type: functional, cell-based
[9] = biological target: T1, Cannabinoid receptor 1; test: Inverse agonist activity at hemagglutinin-tagged human CB1 receptor expressed in HEK293 cells assessed as effect on forskolin-induced cAMP accumulation after 5 to 15 mins in presence of CP55,940 by cAMP BRET assay; assay type: functional, cell-based
[10] = biological target: T1, Cannabinoid receptor 1; test: Activity at human CB1 receptor expressed in AtT20 cells assessed as increase in rate of repolarization at 0.1 to 10 uM in presence of 1 uM CP55,940 by membrane potential assay; assay type: cell-based
[11] = biological target: T2, Cannabinoid receptor 2; test: Allosteric modulator activity at hemagglutinin-tagged human CB2 receptor expressed in Flp-In-293 cells assessed as effect on CP55,940-induced inhibition of forskolin-induced cAMP accumulation by kinetic cAMP assay; assay type: functional, cell-based
[12] = biological target: T1, Cannabinoid receptor 1; test: Activity at hemagglutinin-tagged human CB1 receptor expressed in HEK293 cells assessed as effect on forskolin-induced cAMP accumulation after 5 mins in presence of CP55,940 by cAMP BRET assay; assay type: functional, cell-based
[13] = biological target: T1, Cannabinoid receptor 1; test: Activity at hemagglutinin-tagged human CB1 receptor expressed in HEK293 cells assessed as effect on forskolin-induced cAMP accumulation in presence of CP55,940 by cAMP BRET assay; assay type: functional, cell-based
[14] = biological target: T1, Cannabinoid receptor 1; test: Slow antagonist/Inverse agonist activity at hemagglutinin-tagged human CB1 receptor expressed in HEK293 cells assessed as reversal of 1 uM CP55,940-induced inhibition of 5 uM forskolin-induced cAMP accumulation by kinetic cAMP assay; assay type: functional, cell-based
[15] = biological target: T1, Cannabinoid receptor 1; test: Inverse agonist activity at hemagglutinin-tagged human CB1 receptor expressed in HEK293 cells assessed as increase in forskolin-induced cAMP accumulation in absence of CP55,940 at 10 uM and 31.6 uM by cAMP BRET assay; assay type: functional, cell-based
[16] = biological target: T2, Cannabinoid receptor 2; test: Antagonist activity against hemagglutinin-tagged human CB2 receptor expressed in HEK293 cells assessed as suppression of CP55,940-induced inhibition of forskolin-induced cAMP accumulation by cAMP BRET assay; assay type: functional, cell-based
[17] = system: HEK293; test: Reduction in cAMP accumulation in HEK293 cells by kinetic cAMP assay; assay type: ADME, cell-based; conditions: human
[18] = biological target: T2, Cannabinoid receptor 2; test: Activity at hemagglutinin-tagged human CB2 receptor expressed in HEK293 cells assessed as inhibition of forskolin-induced cAMP accumulation in absence of CP55,940 by cAMP BRET assay; assay type: functional, cell-based

T1 sequence (P21554 whole entry): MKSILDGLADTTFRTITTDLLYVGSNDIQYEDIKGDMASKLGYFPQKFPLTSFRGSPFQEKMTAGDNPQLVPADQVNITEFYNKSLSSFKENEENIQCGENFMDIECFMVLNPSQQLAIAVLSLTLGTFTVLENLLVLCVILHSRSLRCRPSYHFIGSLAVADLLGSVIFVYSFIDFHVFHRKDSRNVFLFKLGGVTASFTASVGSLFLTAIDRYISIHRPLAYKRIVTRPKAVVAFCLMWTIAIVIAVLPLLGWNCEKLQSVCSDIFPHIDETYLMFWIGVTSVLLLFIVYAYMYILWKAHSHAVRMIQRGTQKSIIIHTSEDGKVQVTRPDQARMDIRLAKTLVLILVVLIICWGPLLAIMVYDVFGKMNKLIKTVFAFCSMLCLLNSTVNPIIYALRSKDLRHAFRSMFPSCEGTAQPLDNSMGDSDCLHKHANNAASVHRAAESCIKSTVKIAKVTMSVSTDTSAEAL
T2 sequence (P34972 whole entry): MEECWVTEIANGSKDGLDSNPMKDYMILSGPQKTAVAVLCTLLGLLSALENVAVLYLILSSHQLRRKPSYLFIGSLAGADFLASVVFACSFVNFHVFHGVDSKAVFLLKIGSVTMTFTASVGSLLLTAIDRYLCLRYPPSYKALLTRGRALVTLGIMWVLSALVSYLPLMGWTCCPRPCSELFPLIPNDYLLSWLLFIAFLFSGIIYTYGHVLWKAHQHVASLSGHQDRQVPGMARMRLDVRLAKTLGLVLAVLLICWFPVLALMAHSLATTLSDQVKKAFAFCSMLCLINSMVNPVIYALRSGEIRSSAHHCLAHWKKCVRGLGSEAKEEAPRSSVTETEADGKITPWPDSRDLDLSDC

Compound | Activity [1] | Activity [2] | Activity [3] | Activity [4] | Activity [5] | EC50 [6] [µM] | Activity [7] | EC50 [8] [µM] | Activity [9] | Activity [10] | Activity [11] | EC50 [12] [µM] | EC50 [13] [µM] | inhibition [14] | Activity [15] | inhibition [16] | Activity [17] | EC50 ([6]; hek293) [µM] | EC50 ([13]; hek293) [µM] | EC50 [18] [µM]
CCc1c(C(=O)NCCc2ccc(N3CCCCC3)cc2)[nH]c2ccccc12 | Active | Active | Active | Active | Active | 2.99 | inactive | 3.55 | Active | Active | inactive | 6.84 | 4.01 |  |  |  |  |  |  | 
CCc1c(C(=O)NCCc2ccc(N(C)C)cc2)[nH]c2ccc(Cl)cc12 | Active | inactive |  | Active |  | 0.43 |  | 0.21 | Active |  | inactive | 3.43 | 0.6 | Active | Active |  |  |  |  | 
CCc1c(C(=O)NCCc2ccc([N+](=O)[O-])cc2)[nH]c2ccc(Cl)cc12 | Active | inactive |  | Active |  | 0.66 |  | 0.44 | Active |  | Active | 3.59 | 1.14 | Active | Active | Active |  |  |  | 
CCc1c(C(=O)NCCc2ccc(Cl)cc2)[nH]c2ccc(Cl)cc12 | Active | inactive |  | inactive |  | 1.84 | inactive | 20 | Active | Active | inactive | 8.18 | 3.42 |  |  |  |  |  |  | 
CCc1c(C(=O)NCCc2ccc(C)cc2)[nH]c2ccc(Cl)cc12 | Active | inactive |  | inactive |  | 0.6 | inactive | 0.47 | Active | Active | inactive | 1.01 | 0.79 |  |  |  |  |  |  | 
CCc1c(C(=O)NCCc2ccc(N)cc2)[nH]c2ccc(Cl)cc12 | inactive | Active |  | Active |  |  |  |  |  |  | Active |  |  |  |  |  | Toxic |  |  | 
O=C(NCCc1ccc(N2CCCCC2)cc1)c1cc2cc(Cl)ccc2[nH]1 | inactive | inactive |  | inactive |  |  |  |  |  |  | inactive |  |  |  |  |  |  |  |  | 
O=C(NCCc1ccc([N+](=O)[O-])cc1)c1cc2cc(Cl)ccc2[nH]1 | Active | inactive |  | inactive |  |  |  |  |  |  | inactive |  |  |  |  |  |  |  |  | 
CCc1c(C(=O)OCCc2ccc(NC)cc2)[nH]c2ccc(Cl)cc12 | Active | inactive |  | inactive |  |  |  | < 10 |  |  | inactive | < 10 |  |  |  |  |  | < 10 | < 10 | 
CCc1c(C(=O)NCCc2ccc(F)cc2)[nH]c2ccc(Cl)cc12 | Active | inactive |  | inactive |  | 4.58 |  | 8.96 | Active |  | inactive | 7.37 | 4.99 |  |  |  |  |  |  | 
CC(O)c1c(C(=O)NCCc2ccc(N3CCCCC3)cc2)[nH]c2ccc(Cl)cc12 (centres undefined) | Active | inactive |  | Active |  | 2.97 |  | 1.51 | Active |  | inactive | 13.4 | 2.66 |  | Active |  |  |  |  | 
CCc1c(C(=O)NCCc2ccc(N3CCCCC3)cc2)[nH]c2ccc(Cl)cc12 | Active | inactive |  | Active |  | 2.09 | inactive | 0.64 | Active | Active | inactive | 10.6 | 2.24 |  | Active |  |  |  |  | 
CCc1c(C(=O)OCCc2ccc(N3CCCCC3)cc2)[nH]c2ccc(Cl)cc12 | inactive | Active |  | inactive |  |  |  |  |  |  | inactive |  |  |  |  |  |  |  |  | 0.13
CCc1c(C(=O)NCCc2ccc(N3CCCC3)cc2)[nH]c2ccc(Cl)cc12 | inactive | inactive |  | inactive |  |  |  |  |  |  | inactive |  |  | Active |  |  |  |  |  | 
O=C(NCCc1ccc(Cl)cc1)c1cc2cc(Cl)ccc2[nH]1 | inactive | inactive |  | inactive |  |  |  |  |  |  | inactive |  |  |  |  |  |  |  |  | 
